pEC50: −log10 of the molar value. ≈ marks a conversion by molar mass, not a printed value.
What was measured:
[1] = system: Plasmodium falciparum; assay: Antiplasmodial activity against Plasmodium falciparum K1 assessed as reduction in parasite growth; type: functional, organism-based
[2] = (§1) Cytotoxicity against human HepG2 cells assessed as reduction in cell viability incubated for 72 hrs by MTT assay; type: toxicity, cell-based; settings: HepG2 cells
[3] = system: Plasmodium falciparum; assay: Antiplasmodial activity against chloroquine,pyrimethamine and proguanil resistant blood stage Plasmodium falciparum K1 assessed as reduction in parasite growth incubated for 72 hrs by SYBR Green I fluorescence-based method; type: functional, organism-based
[4] = Permeability of compound at 100 uM at pH 7.4 incubated for 4 hrs by PAMPA-GIT assay; type: ADME; settings: read-out: permeability
[5] = Thermodynamic solubility of compound at pH 7.4 incubated for 24 hrs by shake-flask method; type: physicochemical; settings: buffer, read-out: Therm_solubility
[6] = Solubility of compound in culture media; type: physicochemical
[7] = Selectivity index, ratio of CC50 for cytotoxicity against human HepG2 cells to EC50 for antiplasmodial activity against chloroquine,pyrimethamine and proguanil resistant blood stage Plasmodium falciparum K1; type: toxicity, cell-based; settings: for selectivity ratio: HepG2 cells, read-out: Ratio CC50/EC50
[8] = system: HepG2; assay: as §1; type: toxicity, cell-based; settings: hepg2, 72 h, 72 h
[9] = Permeability of compound at 100 uM at pH 6 incubated for 4 hrs by PAMPA-GIT assay; type: ADME; settings: read-out: permeability
[10] = Permeability of compound at 100 uM at pH 5 incubated for 4 hrs by PAMPA-GIT assay; type: ADME; settings: read-out: permeability
[11] = Plasmodium falciparum, K1, 72 h

| SMILES | CC50 at 72 h [2] | pEC50 [3, 11] | selectivity ratio [7] | further results |
| --- | --- | --- | --- | --- |
| Cc1ccc(-c2ccc3c(=O)[nH]c(NC(C)(C)C)nc3c2)cc1 |  |  |  | pEC50 [1]: < 5.30 |
| CC(C)(C)Nc1nc2nc(-c3ccccc3)sc2c(=O)[nH]1 | > 25 µM | < 4.90 |  |  |
| Cc1ccc(-c2cc3nc(NC(C)(C)C)[nH]c(=O)c3s2)cc1.Cl |  |  |  | Papp at 4 h, 100 µM [4]: 0.46 ×10⁻⁶ cm/s; solubility thermodynamic at 24 h [5]: 7.92 µM |
| CC(C)(C)Nc1nc2cc(-c3ccc(F)cc3)oc2c(=O)[nH]1 | > 3.12 µM | 5.54 | > 1.1 | solubility [6]: Insoluble |
| Cc1c(-c2ccc(F)cc2)sc2c(=O)[nH]c(NC(C)C)nc12 | 19.7 µM | 5.37 | 4.6 |  |
| Cc1ccc(-c2cc3nc(NC(C)(C)C)[nH]c(=O)c3[se]2)cc1 |  |  |  | CC50 [8]: > 7.8 µM; pEC50 [3]: 5.89; Ratio CC50/EC50 [7]: > 6 |
| Cc1c(-c2ccc(Cl)cc2)sc2c(=O)[nH]c(NC(C)C)nc12 | > 25 µM | 5.36 | > 5.7 |  |
| Cc1ccc(-c2cc3c(=O)[nH]c(NC(C)(C)C)nc3s2)cc1 | 20.5 µM | 4.49 | 0.6 |  |
| Cc1ccc(-c2cc3nc(NC(C)(C)C)[nH]c(=O)c3s2)cc1 |  |  |  | Papp at 4 h, 100 µM [4]: 2.05 ×10⁻⁶ cm/s; Papp at 4 h, 100 µM [9]: 1.86 ×10⁻⁶ cm/s; Papp at 4 h, 100 µM [10]: 4.18 ×10⁻⁶ cm/s; solubility thermodynamic at 24 h [5]: 1.56 µM (≈ 0.489 µg/mL) |
| CCOC(=O)c1[nH]c(-c2ccc(C)cc2)c2c(=O)[nH]c(NC(C)(C)C)nc12 | 7.4 µM | 4.77 | 0.4 |  |
| Cc1ccc(-c2cc3nc(NC(C)(C)C)[nH]c(=O)c3o2)cc1 | 10.9 µM |  |  | pEC50 [3]: 6.10; Ratio CC50/EC50 [7]: 13.6 |
| Cc1ccc(-c2ccc3nc(NC(C)(C)C)[nH]c(=O)c3c2)cc1 |  |  |  | pEC50 [1]: < 5.30 |
| Cc1ccc(-c2cc3nc(NC(C)C)[nH]c(=O)c3[se]2)cc1 |  | 6.10 |  | CC50 [8]: > 25 µM; Ratio CC50/EC50 [7]: > 31.3 |
| CC(C)(C)Nc1nc2sc(-c3ccccc3)cc2c(=O)[nH]1 | > 12.5 µM | 4.47 | > 0.4 |  |
| CC(C)(C)Nc1nc2sc(-c3ccc(Cl)cc3)cc2c(=O)[nH]1 | 21.4 µM | < 4.30 | < 0.4 |  |
| Cc1ccc(-c2cc3nc(NC(C)C)[nH]c(=O)c3[se]2)cc1.Cl |  |  |  | CC50 [8]: > 10 µM; pEC50 [3]: 6.11; Ratio CC50/EC50 [7]: > 13 |
| Cc1ccc(-c2cc3nc(NC(C)(C)C)[nH]c(=O)c3o2)cc1.Cl |  |  |  | CC50 [8]: 21.7 µM; pEC50 [3]: 6.52; Ratio CC50/EC50 [7]: 72.3 |
| Cc1ccc(-c2cc3nc(NC(C)C)[nH]c(=O)c3o2)cc1 | 20.4 µM | 7.05 | 227 | Papp at 4 h, 100 µM [4]: 76.9 ×10⁻⁶ cm/s; Papp at 4 h, 100 µM [9]: 64.3 ×10⁻⁶ cm/s; Papp at 4 h, 100 µM [10]: 41.1 ×10⁻⁶ cm/s; solubility thermodynamic at 24 h [5]: 11.5 µM (≈ 3.26 µg/mL) |
| CC(C)(C)Nc1nc2nc(-c3ccc(F)cc3)sc2c(=O)[nH]1 |  |  |  | solubility [6]: Insoluble |
| CC(C)(C)Nc1nc2nc(-c3ccc(Cl)cc3)sc2c(=O)[nH]1 |  |  |  | solubility [6]: Insoluble |
| CC(C)(C)Nc1nc2cc(-c3ccc(Cl)cc3)oc2c(=O)[nH]1 | > 6.25 µM | 6.40 | > 15.6 | solubility [6]: Insoluble |
| Cc1ccc(-c2cc3nc(NC(C)(C)C)[nH]c(=O)c3[se]2)cc1.Cl |  |  |  | CC50 [8]: > 3.12 µM; pEC50 [3]: 6.89; Ratio CC50/EC50 [7]: > 24 |
| Cc1ccc(-c2nc3nc(NC(C)(C)C)[nH]c(=O)c3s2)cc1 | > 5 µM | 5.34 | > 1.1 |  |
| CC(C)(C)Nc1nc2sc(-c3ccc(F)cc3)cc2c(=O)[nH]1 | > 25 µM | < 4.90 |  |  |

— ChEMBL document CHEMBL5104145, “Synthesis of antiplasmodial 2-aminothieno[3,2-d]pyrimidin-4(3H)-one analogues using the scaffold hopping strategy” (Eur J Med Chem, 2022)
